Reference: patent US6747024B1, “Heterocyclic compounds and their use as medicines” (Societe de Conseils de Recherches et d'Applications …, priority 1999, dated 2004)

## CC(=O)O[C@H]1OCC[C@@H]1NC(=O)[C@H](CC(C)C)NC(=O)c1ccc2c(c1)Nc1ccccc1S2 [Example 18.1, (2R,3S)-3-({(2S)-4-methyl-2-[(10H-phenothiazin-2-ylcarbonyl)amino]-pentanoyl}amino)tetrahydro-2-furanyl acetate]
  melting point: 199 to 201 °C

## CC(=O)O[C@@H]1OCC[C@@H]1NC(=O)[C@H](CC(C)C)NC(=O)c1ccc2c(c1)Nc1ccccc1S2 [Example 18.2, (2S,3S)-3-({(2S)-4-methyl-2-[(10H-phenothiazin-2-ylcarbonyl)amino]-pentanoyl}amino)tetrahydro-2-furanyl acetate]
  melting point: 205 to 208 °C
